Experiments:
CFTR channel [1] = target: T1, CFTR channel (Homo sapiens, UniProt P13569); assay: 125I radioactive iodide efflux in CHO-CFTR(+) cells; assay type: cell-based; set-up: expressed in transfected cells; host or cells: CHO (Chinese hamster ovary) cells, CHO-CFTR(+); conditions: for activation of CFTR (125I efflux), in words: n-alkanols 1 mM, FSK 1 μM, A23187 2 μM, α-GA 10 and 100 μM; for effect of inhibitor on activated 125I efflux: CHO-CFTR(+) cells stimulated by octan-1-ol 1 mM, FSK 1 μM or both, glibenclamide 100 μM, H-89 30 μM, PKC inhibitor; for order of activation of CFTR by n-alkanols: 1 mM, 125I efflux or patch-clamp
T1 sequence (P13569 whole entry): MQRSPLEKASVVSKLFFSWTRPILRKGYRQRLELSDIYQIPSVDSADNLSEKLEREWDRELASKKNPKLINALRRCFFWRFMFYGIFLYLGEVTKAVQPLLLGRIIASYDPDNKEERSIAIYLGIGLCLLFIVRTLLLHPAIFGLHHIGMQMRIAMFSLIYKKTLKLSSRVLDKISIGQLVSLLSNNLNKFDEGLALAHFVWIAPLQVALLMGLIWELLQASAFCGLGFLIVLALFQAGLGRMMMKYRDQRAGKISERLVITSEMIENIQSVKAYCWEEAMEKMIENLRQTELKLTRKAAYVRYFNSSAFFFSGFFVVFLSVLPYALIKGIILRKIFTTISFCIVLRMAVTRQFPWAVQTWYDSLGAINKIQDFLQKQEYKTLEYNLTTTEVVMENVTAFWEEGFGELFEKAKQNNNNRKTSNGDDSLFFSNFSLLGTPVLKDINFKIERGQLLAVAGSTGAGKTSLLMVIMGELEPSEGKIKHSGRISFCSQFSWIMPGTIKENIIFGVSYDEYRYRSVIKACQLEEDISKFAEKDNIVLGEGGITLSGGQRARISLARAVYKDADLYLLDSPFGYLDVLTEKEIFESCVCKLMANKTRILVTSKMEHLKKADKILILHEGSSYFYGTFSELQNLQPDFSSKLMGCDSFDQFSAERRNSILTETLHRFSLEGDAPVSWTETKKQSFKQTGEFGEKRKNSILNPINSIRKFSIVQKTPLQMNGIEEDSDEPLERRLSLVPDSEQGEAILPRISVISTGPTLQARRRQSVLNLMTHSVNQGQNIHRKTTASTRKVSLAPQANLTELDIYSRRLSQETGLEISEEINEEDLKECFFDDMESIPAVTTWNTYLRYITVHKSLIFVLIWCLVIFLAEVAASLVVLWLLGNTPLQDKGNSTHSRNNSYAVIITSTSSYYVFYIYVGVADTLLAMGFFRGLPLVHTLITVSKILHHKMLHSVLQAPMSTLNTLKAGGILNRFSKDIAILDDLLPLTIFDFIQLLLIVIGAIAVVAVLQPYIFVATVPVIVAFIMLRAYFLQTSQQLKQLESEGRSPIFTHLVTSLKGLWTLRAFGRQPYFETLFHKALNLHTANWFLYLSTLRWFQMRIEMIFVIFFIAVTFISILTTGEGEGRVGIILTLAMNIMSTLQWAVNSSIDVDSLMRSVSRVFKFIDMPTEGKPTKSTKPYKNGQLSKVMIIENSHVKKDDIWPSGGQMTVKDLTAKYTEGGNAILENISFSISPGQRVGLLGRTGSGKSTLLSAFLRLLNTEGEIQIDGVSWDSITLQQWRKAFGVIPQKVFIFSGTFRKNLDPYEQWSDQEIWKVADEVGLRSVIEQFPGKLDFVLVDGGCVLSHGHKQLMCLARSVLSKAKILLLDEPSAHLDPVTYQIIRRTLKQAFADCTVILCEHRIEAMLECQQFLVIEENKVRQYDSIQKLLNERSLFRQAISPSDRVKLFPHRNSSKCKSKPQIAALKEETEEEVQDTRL
Description: The cells are cultured in 24-well plates with a dilution to 1/10 after passage. […] The operation is repeated every 30 s for 2 to 6 min. […] All the samples are counted in a gamma counter (Kontron). The precipitated proteins are solubilized in 0.1N NaOH and quantified using a calorimetric test.
(§1) The tracer contained in the cell layer at the beginning of the efflux is calculated as the sum of the samples and of the extracts counted. The efflux curves are constructed by expressing the percentage of the content remaining in the cell layer (I %) with respect to time. The stimulated or nonstimulated efflux rate constants (k, min^−1) are determined by smoothing the efflux curves to a monoexponential function I %=100*exp(−kt) using a linear regression of the neperian logarithm of the data, k is used to calculate the iodide released into the medium with respect to time. The hypothesis is made that, in the presence of a stimulator, the efflux is the sum of two iodide effluxes occurring in parallel: a basal efflux and a stimulated efflux characterized, respectively, by the constants kb and ks. The total net efflux is then described by the equation It^%=100*(1−exp(−ktt)) where kt is the sum of kb and ks. Finally, ks calculated as kt−kb is used to establish a dose-response relationship for antagonists. The data is expressed as means ±SD, and the t-test is used to determine the significances. The concentration-response curves for agonists or for antagonists are smooth using the hyperbolic equation Y=Ymax*X/(EC5C+X), where Y is the response. Y begins at the basal level and progresses to the plateau (Ymax), X is the concentration and the half-effect values (EC are calculated using GraphPad Prism v3.0 (GraphPad software)).

CHO-CFTR(-) cells = assay: 125I iodide efflux in CHO-CFTR(-) control cells that do not express CFTR; assay type: cell-based, Chinese hamster; conditions: octan-1-ol 0.1 to 5 mM, FSK 5 μM, A23187 2 μM
[2] = target: T2, ΔF508 mutated CFTR channel (Homo sapiens, UniProt P13569, DEL508-508); assay: iodide efflux in JME/CF15 human bronchial epithelial cells from cystic fibrosis patients; assay type: cell-based; conditions: glibenclamide 100 μM, DIDS 500 μM
T2 construct: epithelial cells extracted from respiratory airways of patients suffering from cystic fibrosis (homozygous ΔF508); endogenous in cells; host or cells: JME/CF15 human airway epithelial cells (homozygous ΔF508)
T2 sequence (P13569 with tags, fused parts or gaps DEL508-508): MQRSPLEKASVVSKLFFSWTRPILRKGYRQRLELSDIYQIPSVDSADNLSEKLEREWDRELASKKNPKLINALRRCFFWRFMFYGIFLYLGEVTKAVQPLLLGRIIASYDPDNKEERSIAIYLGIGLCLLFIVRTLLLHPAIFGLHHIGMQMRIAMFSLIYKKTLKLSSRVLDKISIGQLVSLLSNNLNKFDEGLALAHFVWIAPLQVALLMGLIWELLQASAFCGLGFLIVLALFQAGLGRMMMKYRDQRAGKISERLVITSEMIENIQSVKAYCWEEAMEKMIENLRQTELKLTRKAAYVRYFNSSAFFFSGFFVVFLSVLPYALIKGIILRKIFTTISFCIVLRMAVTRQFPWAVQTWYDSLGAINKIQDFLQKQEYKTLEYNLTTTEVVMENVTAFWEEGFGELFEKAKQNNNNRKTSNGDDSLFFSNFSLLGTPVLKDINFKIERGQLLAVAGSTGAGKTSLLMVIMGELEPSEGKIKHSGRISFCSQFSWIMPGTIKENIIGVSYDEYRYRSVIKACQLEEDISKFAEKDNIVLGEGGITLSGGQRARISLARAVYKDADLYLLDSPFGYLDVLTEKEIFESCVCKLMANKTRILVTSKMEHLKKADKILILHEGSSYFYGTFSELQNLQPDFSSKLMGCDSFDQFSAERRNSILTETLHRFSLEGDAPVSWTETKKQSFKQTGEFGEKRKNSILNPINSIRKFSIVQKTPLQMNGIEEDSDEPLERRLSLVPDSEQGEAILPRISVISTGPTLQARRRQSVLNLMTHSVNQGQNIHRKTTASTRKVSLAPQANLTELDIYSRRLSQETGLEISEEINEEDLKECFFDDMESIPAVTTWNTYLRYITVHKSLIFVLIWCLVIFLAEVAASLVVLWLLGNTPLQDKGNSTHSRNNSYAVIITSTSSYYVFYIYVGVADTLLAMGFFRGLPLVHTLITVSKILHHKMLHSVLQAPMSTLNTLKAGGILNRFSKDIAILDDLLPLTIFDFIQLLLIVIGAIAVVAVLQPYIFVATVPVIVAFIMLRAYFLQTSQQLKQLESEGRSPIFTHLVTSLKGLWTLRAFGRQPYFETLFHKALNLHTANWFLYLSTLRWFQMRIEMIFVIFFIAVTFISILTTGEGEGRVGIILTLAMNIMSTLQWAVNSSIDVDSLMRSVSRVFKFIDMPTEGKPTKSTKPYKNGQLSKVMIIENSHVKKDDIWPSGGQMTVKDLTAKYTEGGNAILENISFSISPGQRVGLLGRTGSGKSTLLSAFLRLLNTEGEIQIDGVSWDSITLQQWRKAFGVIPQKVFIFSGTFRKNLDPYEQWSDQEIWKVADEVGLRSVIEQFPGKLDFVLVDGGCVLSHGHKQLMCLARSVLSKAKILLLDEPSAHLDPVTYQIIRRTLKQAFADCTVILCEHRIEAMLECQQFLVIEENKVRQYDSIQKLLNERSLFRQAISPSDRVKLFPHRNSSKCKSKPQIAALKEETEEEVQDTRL
Description: (§2) The CFTR studies are also carried out on Calu-3 cells (ATCC No. HTB-55), which are human pulmonary epithelial cells endogenously expressing the CFTR channel. These cells are cultured under the same culture conditions as the CHO cells. The study of the mutated CFTR channel is carried out on JME/CF15 cells, which are epithelial cells extracted from respiratory airways of patients suffering from cystic fibrosis (homozygous ΔF508) (Jefferson et al., 1990). These cells therefore express the ΔF508 mutated CFTR channel. These cells are cultured under the same conditions as above, but the culture medium is supplemented with a hormone mixture containing: adenine (180 μM), insulin (5 μg/ml), transferrin (5 μg/ml), hydrocortisone (1.1 μM), triiodothyronine (2 nM), epinephrine (5.5 μM), epidermal growth factor (1.64 nM).
(§3) This technique makes it possible to follow the kinetics of exit of the ^125I radioactive iodide. The cells are cultured in 24-well plates with a dilution to 1/10 after passage. On the fourth day of culture, the drugs to be tested are dissolved in solution according to the desired concentration, at 37° C., in medium B, at pH 7.4, containing, in mM: 137 NaCl, 5.36 KCl, 0.8 mM MgCl2, 1.8 mM CaCl2, 5.5 glucose and 10 HEPES-NaOH. The wells are washed 4 times with 500 μl of medium B. The solution is subsequently replaced with 500 μl of loading solution containing 1 μM KI and 0.5 μCi of ^125INa/ml for 30 min. The kinetics of exit of ^125I are determined after having eliminated the loading solution and washed the wells 4 times with 500 μl of medium B. For the ^125I exit kinetics, 500 μl of medium B containing or not containing the molecules to be tested are incubated for 30 sec in the wells and recovered in a hemolysis tube, so as to be replaced with 500 μl of medium B containing or not containing the molecules to be tested. The operation is repeated every 30 s for 2 to 6 min. At the end of the efflux, the intracellular ions are extracted by adding 1 ml of trichloroacetic acid (7.5%) to the cell layer. All the samples are counted in a gamma counter (Kontron). The precipitated proteins are solubilized in 0.1N NaOH and quantified using a calorimetric test.
as §1, with “The concentration-response curves for agonists or for antagonists are smooth using the hyperbolic equation Y=Ymax*X/(EC5C+X), where Y is the response.” left out

[3] = target: T3, human CFTR channel endogenously expressed in Calu-3 (Homo sapiens, UniProt P13569); assay: iodide efflux in Calu-3 human bronchial epithelial cells; assay type: cell-based; conditions: Calu-3; 1 hour treatment; glibenclamide 100 μM, DIDS 500 μM
T3 construct: human pulmonary epithelial cells endogenously expressing the CFTR channel; host or cells: Calu-3 human pulmonary epithelial cells
T3 sequence (P13569 whole entry): as the sequence (P13569 whole entry) above
Description: as §2, §3
as §1, with “The concentration-response curves for agonists or for antagonists are smooth using the hyperbolic equation Y=Ymax*X/(EC5C+X), where Y is the response.” left out

intracellular cAMP level = assay: total intracellular cAMP assay in CHO-CFTR(+) cells; assay type: cell-based, Chinese hamster; conditions: 5 min, FSK 1 or 5 μM, alcohols 1 mM
Description: The CHO cells are cultured for four days in a 24-well culture plate. On the fourth day of culture, each well is rinsed twice with 500 μl of medium B, and 500 μl of this buffer containing the molecule to be tested are added to each well. After incubation at 37° C. for 5 min, the reaction is stopped by adding a cell lysis buffer. The cell lysis is verified with Trypan blue. The amount of cAMP contained in the cells is determined using the Enzyme Immuno Assay kit (Amersham Biotechnology). The cAMP level is expressed in pmol/well ±SD.

CFTR channel [4] = target: T1, CFTR channel; assay: whole-cell patch-clamp in CHO-CFTR(+) cells; assay type: cell-based; set-up: expressed in transfected cells; host or cells: CHO (Chinese hamster ovary) cells, CHO-CFTR(+); conditions: glibenclamide 100 μM
Excerpt: The patch-clamp technique consists in applying a glass pipette or a glass microelectrode to the surface of the cell. By applying slight touch, it is possible to cause the membrane to adhere to the glass. A small piece of membrane (patch) is thus isolated at the end of the pipette. This is the principle of patch-clamp (O. P. Hamill et al., Pflügers Arch., 1981, 391, 85-100; R. Penner, A Practical Guide to Patch Clamping, 1995, In Single Channel Recording, 2nd edition (Eds. B. Sakmann et al.) Plenum Press, New York, 3-30). To do this, the patch-clamp pipette must have a tip of the order of 1 μm in diameter and a resistance of the order of 1-5 MΩ. The resistance of a pipette or of a microelectrode makes it possible to assess the fineness of the tip: the greater the resistance, the finer the tip or the more the electrode is blocked. […] Interactions between the membrane and the glass will form, aided by a slight suction or negative pressure in the pipette. The quality of this interaction (or sealing) is also assessed by measuring the resistance between the glass and the membrane. To measure overall currents in the whole cell configuration, a sealing resistance of 1 GΩ is sufficient.
More specifically, culture dishes (cell support) are placed in an experimentation cell (volume 1 ml) on the platform of an inverted microscope (Nikon) equipped with phase-contrast lighting. The whole-cell configuration is used for recording the cell currents (Hamill et al., 1981). The experiments are carried out at ambient temperature (20-22° C.). The currents are amplified with an Axopatch 200B amplifier (Axon Instrument Ltd) having a 2-5 kHz low-pass filter (Bessel 6-pole filter), and recorded on the hard disk of a PC after digitization at 10-25 kHz. The pipettes are produced from glass tubes 1 mm in diameter (Clark Electromedical Instrument) in four steps with a horizontal drawing device (Bruwn Flaming 97, CA).
The pipettes, filled with an intracellular solution containing, in mM: 60 KCl; 80 NMDG ([…]); 10 HEPES; 5 EGTA; 1 CaCl2; 4 MgATP; 0.2 Na3GTP; pH 7.4, titrated with KOH), having a resistance of 5 MΩ. The potentials are expressed as the difference between the potential of the patch electrode and that of the bath. In the whole-cell configuration, they represent the membrane potential of the cell. The junction potentials that form between the recording electrode and the extracellular medium are eliminated before the contact of the electrode with the cell. […] The current-voltage relationships in the stationary state are determined using slow voltage ramps (20 mV/.s) under an imposed voltage condition. […]

CNc1ccc2oc(C[C@H]3O[C@@]4(CC[C@H]3C)O[C@H]([C@H](C)C(=O)c3ccc[nH]3)[C@H](C)C[C@H]4C)nc2c1C(=O)O [A23187, reference compound]
activation of CFTR (125I efflux), in words (CFTR channel [1]; CHO-CFTR(+) cells): has no effect
effect on basal level of 125I efflux in cells not expressing CFTR (CHO-CFTR(-) cells): has no effect

O=S(=O)(O)c1cc(N=C=S)ccc1C=Cc1ccc(N=C=S)cc1S(=O)(=O)O [DIDS, 4,4′-diisothiocyanatostilbene-2,2′-disulfonic acid, reference compound]
effect of inhibitor on CFTR-ΔF508 activation by octan-1-ol [2]: insensitive
effect of inhibitor on octan-1-ol-activated efflux [3]: has no effect

C=C[C@@]1(C)CC(=O)[C@]2(O)[C@@]3(C)[C@@H](O)CCC(C)(C)[C@@H]3[C@H](O)[C@H](OC(C)=O)[C@@]2(C)O1 [FSK, forskolin, reference compound]
EC50 (CFTR channel [1]; EC50 of activation of CFTR (125I efflux rate constant), CHO-CFTR(+) cells, FSK 0.1 to 5 μM): ~0.5 µM

O=S(=O)(NCCNC/C=C/c1ccc(Br)cc1)c1cccc2cnccc12 [H-89, reference compound]
effect of inhibitor on activated 125I efflux (CFTR channel [1]): inhibited

CCCCCCCCCCO [decan-1-ol]
order of activation of CFTR by n-alkanols (CFTR channel [1]): hexan-1-ol<heptan-1-ol<octan-1-ol<octan-2-ol<decan-1-ol
activation of CFTR (125I efflux), in words (CFTR channel [1]; CHO-CFTR(+) cells): significantly activates the CFTR channel

CCO [ethanol, reference compound]
effect on intracellular cAMP level (intracellular cAMP level): neither octan-1-ol, hexan-1-ol or ethanol modifies the basal cAMP level
activation of CFTR (125I efflux), in words (CFTR channel [1]; CHO-CFTR(+) cells): do not activate the CFTR channel

COc1ccc(Cl)cc1C(=O)NCCc1ccc(S(=O)(=O)NC(=O)NC2CCCCC2)cc1 [glibenclamide, reference compound]
effect of inhibitor on CFTR-ΔF508 activation by octan-1-ol [2]: inhibited
effect of inhibitor on octan-1-ol-activated efflux [3]: strongly blocked
effect of inhibitor on activated 125I efflux (CFTR channel [1]): completely inhibited
effect of glibenclamide on FSK- or octan-1-ol-induced current (CFTR channel [4]): completely inhibited

CCCCCCCO [heptan-1-ol]
order of activation of CFTR by n-alkanols (CFTR channel [1]): hexan-1-ol<heptan-1-ol<octan-1-ol<octan-2-ol<decan-1-ol
activation of CFTR (125I efflux), in words (CFTR channel [1]; CHO-CFTR(+) cells): increase in activation of CFTR

CCCCCCO [hexan-1-ol]
effect on intracellular cAMP level (intracellular cAMP level): neither octan-1-ol, hexan-1-ol or ethanol modifies the basal cAMP level
order of activation of CFTR by n-alkanols (CFTR channel [1]): hexan-1-ol<heptan-1-ol<octan-1-ol<octan-2-ol<decan-1-ol
activation of CFTR (125I efflux), in words (CFTR channel [1]; CHO-CFTR(+) cells): significantly activates the CFTR channel

CO [methanol, reference compound]
activation of CFTR (125I efflux), in words (CFTR channel [1]; CHO-CFTR(+) cells): not significantly different from the unstimulated efflux

CCCCCCC(C)O (stereo not drawn) [octan-2-ol]
order of activation of CFTR by n-alkanols (CFTR channel [1]): hexan-1-ol<heptan-1-ol<octan-1-ol<octan-2-ol<decan-1-ol
activation of CFTR (125I efflux), in words (CFTR channel [1]; CHO-CFTR(+) cells): also activates the CFTR protein

butan-1-ol [reference compound]
activation of CFTR (125I efflux), in words (CFTR channel [1]; CHO-CFTR(+) cells): not significantly different from the unstimulated efflux
activation of CFTR (125I efflux), in words (CFTR channel [1]; CHO-CFTR(+) cells, listed as butanol): do not activate the CFTR channel
